Laboratory results: PMC6264278, “Corydaline Inhibits Multiple Cytochrome P450 and UDP-Glucuronosyltransferase Enzyme Activities in Human Liver Microsomes” (Molecules, 2011)
Like-named read-outs stand apart in the source and are kept apart here.

Key:
Assay type in all cases: in vitro ADME
CYP1A2 = molecular target: T1, CYP1A2 (Homo sapiens, UniProt P05177); assay: CYP1A2 phenacetin O-deethylation inhibition, cocktail assay in pooled human liver microsomes; details: 50 μM phenacetin, no inhibition at 200 μM of corydaline; for IC50 no preincubation, CYP1A2 phenacetin O-deethylation: pooled human liver microsomes (H161)
T1 construct: using pooled human liver microsomes; tissue BD Gentest Co. H161; host or cells: pooled human liver microsomes
T1 sequence (P05177 1-516): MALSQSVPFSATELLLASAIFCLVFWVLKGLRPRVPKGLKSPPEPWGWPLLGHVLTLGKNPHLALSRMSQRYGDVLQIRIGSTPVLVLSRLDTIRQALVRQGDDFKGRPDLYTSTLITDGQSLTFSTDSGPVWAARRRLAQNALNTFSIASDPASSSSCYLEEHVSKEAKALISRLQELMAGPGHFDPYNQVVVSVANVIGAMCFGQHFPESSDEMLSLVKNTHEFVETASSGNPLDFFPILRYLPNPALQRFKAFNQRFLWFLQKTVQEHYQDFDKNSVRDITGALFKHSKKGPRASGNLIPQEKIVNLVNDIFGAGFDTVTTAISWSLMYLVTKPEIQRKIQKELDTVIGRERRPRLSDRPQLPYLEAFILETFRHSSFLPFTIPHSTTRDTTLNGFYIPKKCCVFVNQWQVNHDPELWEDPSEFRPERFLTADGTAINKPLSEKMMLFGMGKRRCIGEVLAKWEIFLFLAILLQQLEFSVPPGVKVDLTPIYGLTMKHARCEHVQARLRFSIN
Description: (§1) Phenacetin O-deethylase, coumarin 7-hydroxylase, amodiaquine N-deethylase, diclofenac 4-hydroxylase, S-mephenytoin 4-hydroxylase, bufuralol hydroxylase, and midazolam 1’-hydroxylase activities were determined as probe activities for CYP1A2, CYP2A6, CYP2C8, CYP2C9, CYP2C19, CYP2D6, and CYP3A4, respectively, using cocktail incubation and liquid chromatography-tandem mass spectrometry (LC/MS/MS). The incubation mixtures were prepared in a total volume of 200 μL, as follows: pooled human liver microsomes (0.25 mg/mL), 1.3 mM NADPH, 3.3 mM MgCl2, 50 mM potassium phosphate buffer (pH 7.4), and a cocktail of probe substrates and various concentrations of corydaline (1−200 μM). The substrates were used at concentrations approximately equal to their respective Km values: 50 μM phenacetin, 2.5 μM coumarin, 2.5 μM amodiaquine, 10 μM diclofenac, 100 μM S-mephenytoin, 5 μM bufuralol, and 2.5 μM midazolam. After a 3-min pre-incubation period at 37 °C, the reactions were initiated by addition of an NADP generating system and incubated for 20 min at 37 °C in a shaking water bath. After incubation, the reaction was stopped by placement of the tubes on ice and addition of 100 μL of ice-cold methanol containing internal standards (^13C2,^15N-acetaminophen for acetaminophen and N-desethylamodiaquine, d5-7-hydroxycoumarin for 7-hydroxycoumarin, ^13C6-4-hydroxydiclofenac for 4-hydroxydiclofenac, d3-4-hydroxy-mephenytoin for 4-hydroxymephenytoin and hydroxymidazolam, d9-1-hydroxybufuralol for 1-hydroxybufuralol). The incubation mixtures were then centrifuged at 13,000 × g for 5 min. All incubations were performed in triplicate and the mean values were used. […] The reaction was started by addition of a cocktail of CYP probe substrates.
All 7 metabolites produced from the cocktail of CYP isoform-specific substrates were simultaneously determined by LC/MS/MS [25]. […] Quantification was performed by selected reaction monitoring (SRM) of the [M+H]^+ ion and the related product ion for each metabolite. […]

CYP3A = assay: Time- and concentration-dependent inactivation of CYP3A-mediated midazolam hydroxylation in human liver microsomes; details: probe midazolam (1'-hydroxylation), estimated from kobs vs corydaline concentration (10-150 μM)
Description: The inhibitory effects of corydaline toward seven major human CYP isoforms and four major human UGT isoforms were evaluated using cocktail CYP probe substrates and each UGT probe substrate in human liver microsomes, respectively. […] To determine whether midazolam metabolism is inhibited by corydaline, we performed time- and concentration-dependent inactivation assays in human liver microsomes. […] Values for kobs were plotted against corydaline concentration and used for estimation of maximal rates (kinact) and Ki values in human liver microsomes (Figure 2b).

CYP2C19 = molecular target: T2, CYP2C19 (Homo sapiens, UniProt P33261); assay: CYP2C19 S-mephenytoin 4'-hydroxylation inhibition in pooled human liver microsomes; details: for IC50: 100 μM S-mephenytoin, mean ± SD, n = 3
T2 construct: using pooled human liver microsomes; tissue BD Gentest Co. H161; host or cells: pooled human liver microsomes
Description: as §1
All 7 metabolites produced from the cocktail of CYP isoform-specific substrates were simultaneously determined by LC/MS/MS [25]. The system consisted of a tandem quadrupole mass spectrometer (TSQ Quantum Access, ThermoFisher Scientific, San Jose, CA, USA) coupled with a Nanospace SI-2 LC system. […] Quantification was performed by selected reaction monitoring (SRM) of the [M+H]^+ ion and the related product ion for each metabolite. […]
Reactions were initiated by addition of NADPH at 37 °C and stopped after 15 min by placement of the incubation tubes on ice and addition of ice-cold methanol (100 μL) containing an internal standard (2.0 μg/mL ^13C6-4-hydroxydiclofenac for diclofenac, 0.5 μg/mL d3-4-hydroxymephenytoin for mephenytoin, or 0.5 μg/mL d9-1-hydroxy-bufuralol for bufuralol). The incubation mixtures were centrifuged at 13,000 × g for 5 min, and aliquots (5 μL) of the supernatants were analyzed by LC/MS/MS. […] Aliquots (5 μL) were analyzed by LC/MS/MS. […]

T2 sequence (P33261 whole entry): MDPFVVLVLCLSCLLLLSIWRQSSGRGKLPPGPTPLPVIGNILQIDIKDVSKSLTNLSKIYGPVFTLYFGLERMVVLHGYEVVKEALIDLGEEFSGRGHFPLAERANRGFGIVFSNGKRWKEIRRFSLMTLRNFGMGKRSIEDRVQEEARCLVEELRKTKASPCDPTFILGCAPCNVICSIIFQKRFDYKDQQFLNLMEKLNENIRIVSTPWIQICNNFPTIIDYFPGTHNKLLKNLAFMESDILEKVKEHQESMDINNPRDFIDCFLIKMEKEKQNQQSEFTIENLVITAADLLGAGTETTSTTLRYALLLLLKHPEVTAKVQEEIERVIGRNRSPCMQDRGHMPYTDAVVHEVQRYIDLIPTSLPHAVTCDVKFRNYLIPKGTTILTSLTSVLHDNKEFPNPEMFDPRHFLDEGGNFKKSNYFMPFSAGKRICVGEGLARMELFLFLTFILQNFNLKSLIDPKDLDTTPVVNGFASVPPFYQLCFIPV

IC50 no preincubation, CYP1A2 phenacetin O-deethylation (CYP1A2): negligible inhibition
IC50 no preincubation, CYP1A2 phenacetin O-deethylation (CYP1A2; listed as corydaline): No inhibition **
IC50 with preincubation, CYP1A2 phenacetin O-deethylation (CYP1A2; pre-incubated 30 min with NADPH): No inhibition **
KI (inactivation) (CYP3A; read-out: apparent Ki of inactivation, CYP3A midazolam hydroxylation): 30 µM
kinact (CYP3A; read-out: maximal rate of inactivation (kinact), CYP3A midazolam hydroxylation (converted)): 0.00107 s⁻¹
inhibition mode, CYP2C19 S-mephenytoin 4'-hydroxylation (CYP2C19; Lineweaver, Dixon and secondary reciprocal plots): competitive
Ki (CYP2C19; human liver microsomes, 10-40 μM S-mephenytoin): 1700 ± 500 nM
IC50 (CYP2C19; pooled human liver microsomes (H161), read-out: IC50 no preincubation, CYP2C19 S-mephenytoin 4'-hydroxylation): 11.7 ± 1.4 µM
IC50 (CYP2C19; pre-incubated 30 min with NADPH, read-out: IC50 with preincubation, CYP2C19 S-mephenytoin 4'-hydroxylation): 19.2 ± 1.8 µM
SMILES: COc1cc2c(cc1OC)C1C(C)c3ccc(OC)c(OC)c3CN1CC2 (stereo not drawn) [Corydaline, 2,3,9,10-tetramethoxy-13-methyl-5,8,13,13a-tetrahydro-6H-isoquino[3,2-a]isoquinoline]
